Where two headings read alike, the source gives them in different places.
How the values were obtained:
HCV genotype 1b replicon = test: HCV replicon assay, genotype 1b (cell ELISA for NS3/4A); assay type: cell-based, hepatitis C virus
Method: (§1) Measurement of inhibition by compounds was performed using the HCV replicon system. Several different replicons encoding different HCV genotypes or mutations were used. In addition, potency measurements were made using different formats of the replicon assay, including different ways of measurements and different plating formats. See Jan M. Vrolijk et al., A replicons-based bioassay for the measurement of interferons in patients with chronic hepatitis C, 110 J. VIROLOGICAL METHODS 201 (2003); Steven S. Carroll et al., Inhibition of Hepatitis C Virus RNA Replication by 2′-Modified Nucleoside Analogs, 278 (14) J. BIOLOGICAL CHEMISTRY 11979 (2003). However, the underlying principles are common to all of these determinations, and are outlined below.
(§2) Stable neomycin phosphotransferase encoding replicons-harboring cell lines were used, so all cell lines were maintained under G418 selection prior to the assay. Potency was deteremined using a cell ELISA assay with an antibody to the replicons encoded NS3/4a protease. See Caterina Trozzi et al., In Vitro Selection and Characterization of Hepatitis C Virus Serine Protease Variants Resistant to an Active-Site Peptide Inhibitor, 77 (6) J. Virol. 3669 (2003). To initiate an assay, replicon cells were plated in the presence of a dilution series of test compound in the absence of G418. Typically, the assays were performed in a 96-well plate formate for manual operation, or a 384-well plate format for automated assay. Replicon cells and compound were incubated for 96 hours. At the end of the assay, cells were washed free of media and compound, and the cells were then lysed. RNA was quantified indirectly through detection of replicon-encoded NS3/4A protein levels, through an ELISA-based assay with an antibody specific for NS3/4A. IC50 determinations were calculated as a percentage of a DMSO control by fitting the data to a four-parameter fit function and the data obtained for genotypes 1a and 1b using this method is provided in the table below.

HCV genotype 1a replicon = test: HCV replicon assay, genotype 1a (cell ELISA for NS3/4A); assay type: cell-based, hepatitis C virus
Method: as §1, §2

[1] = Hepatitis C virus, 96 h, read-out: 1b IC50 (nM), genotype 1b replicon cells, 96 hours incubation, NS3/4A ELISA
[2] = read-out: 1a IC50, genotype 1a replicon cells, 96 hours incubation, NS3/4A ELISA
[3] = read-out: 1b IC50, genotype 1b replicon cells, 96 hours incubation, NS3/4A ELISA
[4] = Hepatitis C virus, 96 h, read-out: 1a IC50 (nM), genotype 1a replicon cells, 96 hours incubation, NS3/4A ELISA

SMILES | IC50 (HCV genotype 1b replicon; [1]) | IC50 (HCV genotype 1a replicon; [2]) | IC50 (HCV genotype 1b replicon; [3]) | IC50 (HCV genotype 1a replicon; [4])
CNC(=O)c1c(-c2ccc(F)cc2F)oc2cc(N(C)S(C)(=O)=O)c(-c3ccc4c(n3)-c3cc5c(F)cccc5n3C(CS(C)(=O)=O)C4)cc12 (stereo not drawn) [Example 58] | 1.71 nM | 1.52 nM |  | 
CNC(=O)c1c(-c2ccc(F)cc2F)oc2cc(N(C)S(C)(=O)=O)c(-c3ccc4c(n3)-c3cc5c(F)cccc5n3C(CS(C)(=O)=O)C4)cc12 (stereo not drawn) [Example 59] |  | 5.45 nM | 2.9 nM | 
CNC(=O)c1c(-c2ccc(F)cc2)oc2cc(N(C)S(C)(=O)=O)c(-c3ccc4c(n3)-c3cc5c(F)cccc5n3CC4C)cc12 (stereo not drawn) [Example 62] | 2.55 nM |  |  | 2.69 nM
CNC(=O)c1c(-c2ccc(F)cc2)oc2cc(N(C)S(C)(=O)=O)c(-c3ncc4c(n3)-c3cc5c(F)cccc5n3CC4)cc12 [Example 63, 5-(11-fluoro-5,6-dihydropyrimido[4′,5′:3,4]pyrido[1,2-a]indol-2-yl)-2-(4-fluorophenyl)-N-methyl-6-(N-methylmethylsulfonamido)benzofuran-3-carboxamide] | 3.28 nM |  |  | 4.34 nM
CNC(=O)c1c(-c2ccc(F)cc2)oc2cc(N(C)S(C)(=O)=O)c(-c3cc4c(cn3)CC(C)(C)n3c-4cc4c(F)cccc43)cc12 [Example 64, 5-(11-fluoro-6,6-dimethyl-5,6-dihydroindolo[2,1-a][2,6]naphthyridin-2-yl)-2-(4-fluorophenyl)-N-methyl-6-(N-methylmethylsulfonamido)benzofuran-3-carboxamide] | 9.09 nM |  |  | 23.2 nM
CNC(=O)c1c(-c2ccc(F)cc2)oc2cc(N(C)S(C)(=O)=O)c(-c3ccc4c(n3)-c3cc5c(F)cccc5n3C(CCO)C4)cc12 (stereo not drawn) [Example 65, 5-(11-fluoro-6-(2-hydroxyethyl)-5,6-dihydroindolo[1,2-h][1,7]naphthyridin-2-yl)-2-(4-fluorophenyl)-N-methyl-6-(N-methylmethylsulfonamido)benzofuran-3-carboxamide] | 3.96 nM |  |  | 3.62 nM
CNC(=O)c1c(-c2ccc(C)nc2)oc2cc(N(C)S(C)(=O)=O)c(-c3ccc4c(n3)-c3cc5c(F)cccc5n3C(CCN3CC(F)C3)C4)cc12 (stereo not drawn) [Example 66, 5-(11-fluoro-6-(2-(3-fluoroazetidin-1-yl)ethyl)-5,6-dihydroindolo[1,2-h][1,7]naphthyridin-2-yl)-N-methyl-6-(N-methylmethylsulfonamido)-2-(6-methylpyridin-3-yl)benzofuran-3-carboxamide] |  | 13 nM | 11.4 nM | 
CNC(=O)c1c(-c2ccc(C)nc2)oc2cc(N(C)S(C)(=O)=O)c(-c3ccc4c(n3)-c3cc5c(F)cccc5n3C(CCN3CC(F)C3)C4)cc12 (stereo not drawn) [Example 67] |  | 12.5 nM | 16.4 nM | 
CNC(=O)c1c(-c2ccc(C)nc2)oc2cc(N(C)S(C)(=O)=O)c(-c3ccc4c(n3)-c3cc5c(F)cccc5n3C(CCN3CC(F)C3)C4)cc12 (stereo not drawn) [Example 68] |  | 70.9 nM | 60.6 nM | 
CNC(=O)c1c(-c2ccc(F)cc2)oc2cc(N(C)S(C)(=O)=O)c(-c3ccc4c(n3)-c3cc5c(F)cccc5n3CC(O)C4)cc12 (stereo not drawn) [Example 69] | 2.95 nM |  |  | 2.3 nM
CNC(=O)c1c(-c2ccc(C)nc2)oc2cc(N(C)S(C)(=O)=O)c(-c3ccc4c(n3)-c3cc5c(F)cccc5n3CC(N3CC(F)C3)C4)cc12 (stereo not drawn) [Example 71] | 42.2 nM |  |  | 41.7 nM
CNC(=O)c1c(-c2ccc(F)cc2)oc2cc(N(C)S(C)(=O)=O)c(-c3ccc4c(n3)-c3cc5c(F)cccc5n3CCC4)cc12 [Example 72, 5-(12-fluoro-6,7-dihydro-5H-pyrido[2′,3′:3,4]azepino[1,2-a]indol-2-yl)-2-(4-fluorophenyl)-N-methyl-6-(N-methylmethylsulfonamido)benzofuran-3-carboxamide] | 4.29 nM |  |  | 3.71 nM
CNC(=O)c1c(-c2ccc(F)cc2)oc2cc(N(C)S(C)(=O)=O)c(-c3ccc4c(n3)-c3cc5c(C#N)cccc5n3CCC4)cc12 [Example 73] | 2.78 nM |  |  | 2.01 nM
CNC(=O)c1c(-c2ccc(F)cc2)oc2cc(N(C)S(C)(=O)=O)c(-c3ccc4c(n3)-c3cc5c(F)cccc5n3C(=O)CC4)cc12 [Example 74, 5-(12-fluoro-7-oxo-6,7-dihydro-5H-pyrido[2′,3′:3,4]azepino[1,2-a]indol-2-yl)-2-(4-fluorophenyl)-N-methyl-6-(N-methylmethylsulfonamido)benzofuran-3-carboxamide] | 11.4 nM |  |  | 8.2 nM
CNC(=O)c1c(-c2ccc(F)cc2)oc2cc(N(C)S(C)(=O)=O)c(-c3ccc4c(n3)-c3c(C)c5ccccc5n3CC4)cc12 [Example 76, 2-(4-fluorophenyl)-N-methyl-5-(12-methyl-5,6-dihydroindolo[1,2-h][1,7]naphthyridin-2-yl)-6-(N-methylmethylsulfonamido)benzofuran-3-carboxamide] | 194 nM |  |  | 1000 nM
CNC(=O)c1c(-c2ccc(F)cc2)oc2cc(N(C)S(C)(=O)=O)c(-c3ccc4c(n3)-c3cc5ncccc5n3CC4)cc12 [Example 77] | 4.03 nM |  |  | 27.9 nM
CNC(=O)c1c(-c2ccc(F)cc2)oc2cc(N(C)S(C)(=O)=O)c(-c3ccc4c(n3)-c3cc5nc(OC)ccc5n3CC4)cc12 [Example 78] | 22.1 nM |  |  | 206 nM
CNC(=O)c1c(-c2ccc(F)cc2)oc2cc(N(C)S(C)(=O)=O)c(-c3ccc4ccn5c6ccccc6c(C)c5c4n3)cc12 [Example 79, 2-(4-fluorophenyl)-N-methyl-5-(12-methylindolo[1,2-h][1,7]naphthyridin-2-yl)-6-(N-methylmethylsulfonamido)benzofuran-3-carboxamide] | 77.3 nM |  |  | 93.8 nM
CNC(=O)c1c(-c2ccc(F)cc2)oc2cc(N(C)S(C)(=O)=O)c(-c3ccc4ccn5c6ccc(OC)nc6cc5c4n3)cc12 [Example 80] | 9.77 nM |  |  | 27.7 nM
CNC(=O)c1c(-c2ccc(F)cc2)oc2cc(N(C)S(C)(=O)=O)c(-c3ccc4ccn5c6ccc(O)nc6cc5c4n3)cc12 [Example 81] | 33.9 nM |  |  | 196 nM
CNC(=O)c1c(-c2ccc(F)cc2)oc2cc(N(C)S(C)(=O)=O)c(-c3ccc4ccn5c6cccc(F)c6cc5c4n3)cc12 [Example 82, 5-(11-fluoroindolo[1,2-h][1,7]naphthyridin-2-yl)-2-(4-fluorophenyl)-N-methyl-6-(N-methylmethylsulfonamido)benzofuran-3-carboxamide] | 5.54 nM |  |  | 2.88 nM
CNC(=O)c1c(-c2ccc(F)cc2)oc2cc(N(C)S(C)(=O)=O)c(-c3ccc4ccn5c6cccc(C#N)c6cc5c4n3)cc12 [Example 83] | 3.44 nM |  |  | 1.49 nM
CNC(=O)c1c(-c2ccc(F)cc2F)oc2cc(N(C)S(C)(=O)=O)c(-c3ccc4ccn5c6cccc(F)c6cc5c4n3)cc12 [Example 84] | 6.41 nM |  |  | 4.28 nM
CNC(=O)c1c(-c2ccc(F)cc2)oc2cc(N(C)S(C)(=O)=O)c(-c3ccc4c(n3)-c3cc5c(F)cccc5n3CC4)cc12 [Example 85, 5-(11-fluoro-5,6-dihydroindolo[1,2-h][1,7]naphthyridin-2-yl)-2-(4-fluorophenyl)-N-methyl-6-(N-methylmethylsulfonamido)benzofuran-3-carboxamide] | 3.29 nM |  |  | 2.99 nM
CNC(=O)c1c(-c2ccc(F)cc2)oc2cc(N(C)S(C)(=O)=O)c(-c3ccc4c(n3)-c3cc5c(F)cccc5n3C4O)cc12 (stereo not drawn) [Example 87, 5-(10-fluoro-5-hydroxy-5H-pyrido[2′,3′:3,4]pyrrolo[1,2-a]indol-2-yl)-2-(4-fluorophenyl)-N-methyl-6-(N-methylmethylsulfonamido)benzofuran-3-carboxamide] | 7.29 nM |  |  | 7.69 nM
CNC(=O)c1c(-c2ccc(F)cc2)oc2cc(N(C)S(C)(=O)=O)c(-c3ccc4c(n3)-c3cc5c(F)cccc5n3C4)cc12 [Example 88, 5-(10-fluoro-5H-pyrido[2′,3′:3,4]pyrrolo[1,2-a]indol-2-yl)-2-(4-fluorophenyl)-N-methyl-6-(N-methylmethylsulfonamido)benzofuran-3-carboxamide] | 9.43 nM |  |  | 8.73 nM
CNC(=O)c1c(-c2ccc(F)cc2)oc2cc(N(C)S(C)(=O)=O)c(-c3ccc4c(n3)-c3cc5c(F)cccc5n3CC4F)cc12 (stereo not drawn) [Example 89, 5-(5,11-difluoro-5,6-dihydroindolo[1,2-h][1,7]naphthyridin-2-yl)-2-(4-fluorophenyl)-N-methyl-6-(N-methylmethylsulfonamido)benzofuran-3-carboxamide] | 5.49 nM |  |  | 2.12 nM

Source: patent publication US9243002B2, “Tetracyclic heterocycle compounds and methods of use thereof for the treatment of hepatitis C” (priority 2013, dated 2016)
